Measurements as given in article PMC12010937, “Evaluation of FXR Activity in Pollutants Identified in Sewage Sludge and Subsequent in Vitro and in Vivo Characterization of Metabolic Effects of Triphenyl Phosphate” (Environmental Health Perspectives, 2025).
pIC50: −log10 of the molar value. “And” between values parts separate entries of the source, which are not always exact repeats. Identical values can stand only once.

Columns and labels:
[1] = tested on: FXR, PXR and PPARγ target genes in liver; test: qPCR of genes in mouse liver; assay type: in vivo, C57BL/6N mice
Protocol: (§1) Male C57BL/6N mice (8 wk of age) were purchased from Beijing Vital River Laboratory Inc. and acclimated to the environment for 2 wk before they were used for experiments. The environment was maintained at 22°C, in a 12-h light/dark cycle with 50%–60% relative humidity and fed standard chow diets. Because the male mice are more sensitive to metabolic disease than female mice and the estrous cycle of female mice may induce variability to the metabolic phenotypes,[50] only male mice were used in this study. Animals were randomly assigned to control or TPHP treatment groups (five mice per group). Mice were exposed to corn oil (control) purchased from Sigma-Aldrich (C8267) or TPHP (dissolved in corn oil) at 10mg/kg or 50mg/kg body weight (BW) by daily oral gavage for 35 d. The administered volume was 5mL/kg BW. The TPHP corn oil solutions for administration were prepared by dissolving the TPHP in corn oil, and the solutions were stored at −20°C and freshly prepared each week. BW was measured every other day during the dosing period. At the end of experiments, the mice were anesthetized with isoflurane, then blood was collected from the retro-orbital sinus via orbital puncture, and then the mice were euthanized by cervical dislocation. The liver was isolated, weighted, and divided into three fractions: one fraction was fixed with 4% neutral-buffered formalin for Oil Red staining; another fraction was frozen in liquid nitrogen and stored at −80°C for the BA targeted analysis, lipidomic analysis, and qPCR analysis; the remaining fraction was embedded with 3% carboxymethylcellulose (CMC) for MSI analysis. The ileum was also isolated, weighted, and stored at −80°C for the BA targeted analysis and qRT-PCR analysis. Cecal contents were collected from the cecum of mice for the 16S rRNA gene sequencing analysis. Animal study protocols were approved by the Animal Care and Use Committee of Peking University (approval number: Urban-WanY-1).
Total RNA was extracted from cells or mice tissues (liver and ileum) using the Total RNA kit (Tiangen Biotech), and concentration and quality of the RNA were determined using a SMA4000 Nanodrop spectrophotometer (Merinton). Then, the RNA was reverse transcribed into cDNA by HiScript III RT SuperMix for qPCR (Vazyme). In addition, qPCR was performed in the Mx3005P real-time PCR system (Agilent Technologies) with the ChamQ SYBR qPCR Master Mix Kit (Vazyme). Reactions were carried out for 5 min at 95°C, followed by 40 cycles of two-step PCR for 10 s at 95°C and 30 s at 60°C. The relative RNA expression levels of the target genes were normalized to GAPDH using the 2^−ΔΔCt method.

[2] = target: T1, human FXR-LBD (GST-FXR-LBD) (Homo sapiens, UniProt Q96RI1); test: HTRF coactivator recruitment assay, antagonist mode (in the presence of 50 μM CDCA); assay type: biochemical
T1 construct: the human FXR-LBD (residues 234–472) was expressed as a GST fusion protein GST-FXR-LBD; made in house; host or cells: E. coli BL21(DE3)
T1 sequence (Q96RI1 234-472 isoform Q96RI1-2): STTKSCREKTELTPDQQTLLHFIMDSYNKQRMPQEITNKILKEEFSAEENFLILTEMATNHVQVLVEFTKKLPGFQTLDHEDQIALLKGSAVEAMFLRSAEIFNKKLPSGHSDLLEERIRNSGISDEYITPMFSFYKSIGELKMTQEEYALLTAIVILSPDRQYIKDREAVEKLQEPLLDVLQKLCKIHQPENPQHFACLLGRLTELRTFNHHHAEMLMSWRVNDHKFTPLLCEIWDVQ

C57BL/6N mice = test: Hepatic triglyceride (TG enzymatic assay kit); assay type: in vivo; conditions: for Hepatic TG: individual mice
Protocol: as §1, with “Cecal contents were collected from the cecum of mice for the 16S rRNA gene sequencing analysis. Animal study protocols were approved by the Animal Care and Use Committee of Peking University (approval number: Urban-WanY-1).” left out
The TG level in the liver was determined using a triglyceride enzymatic assay kit (Applygen). […] The total BA level in the liver was determined using a Total Bile Acid (TBA) Colorimetric Assay Kit (Elabscience). […] Both the TG and TBA results were normalized by the protein concentration determined by bicinchoninic acid (BCA) method using a BCA kit (Applygen).

[3] = read-out: Relative antagonist activity (%)

O=P(Oc1ccccc1)(Oc1ccccc1)Oc1ccccc1 [TPHP, triphenyl phosphate]
Relative mRNA expression of Acc1 in liver ([1]; TPHP-H: 50 mg/kg, 35 d): 1.30 fold changes and 1.85 fold changes and 1.75 fold changes | Relative mRNA expression of Acly in liver ([1]; TPHP-H: 50 mg/kg, 35 d): 1.31 fold changes and 1.49 fold changes and 1.68 fold changes | Relative mRNA expression of Bsep in liver ([1]; TPHP-H: 50 mg/kg, 35 d): 0.59 fold changes and 0.34 fold changes and 0.54 fold changes | Relative mRNA expression of Cd36 in liver ([1]; TPHP-H: 50 mg/kg, 35 d): 0.97 fold changes and 1.09 fold changes and 0.65 fold changes | Relative mRNA expression of Cpt1a in liver ([1]; TPHP-H: 50 mg/kg, 35 d): 0.75 fold changes and 0.89 fold changes and 1.31 fold changes | Relative mRNA expression of Cyp2b10 in liver ([1]; TPHP-H: 50 mg/kg, 35 d): 1.32 fold changes and 0.97 fold changes and 0.68 fold changes | Relative mRNA expression of Cyp3a11 in liver ([1]; TPHP-H: 50 mg/kg, 35 d): 0.93 fold changes and 0.74 fold changes and 0.82 fold changes | Relative mRNA expression of Cyp7a1 in liver ([1]; TPHP-H: 50 mg/kg, 35 d): 2.89 fold changes and 2.77 fold changes and 3.66 fold changes | Relative mRNA expression of Cyp7b1 in liver ([1]; TPHP-H: 50 mg/kg, 35 d): 1.54 fold changes and 0.80 fold changes and 0.81 fold changes | Relative mRNA expression of Cyp8b1 in liver ([1]; TPHP-H: 50 mg/kg, 35 d): 1.26 fold changes and 1.33 fold changes and 0.86 fold changes | Relative mRNA expression of Cyp27a1 in liver ([1]; TPHP-H: 50 mg/kg, 35 d): 0.93 fold changes and 1.23 fold changes and 1.03 fold changes | Relative mRNA expression of Dgat2 in liver ([1]; TPHP-H: 50 mg/kg, 35 d): 1.67 fold changes and 1.99 fold changes and 1.63 fold changes | Relative mRNA expression of Fae in liver ([1]; TPHP-H: 50 mg/kg, 35 d): 1.30 fold changes and 0.87 fold changes and 0.66 fold changes | Relative mRNA expression of Hmgcs2 in liver ([1]; TPHP-H: 50 mg/kg, 35 d): 0.85 fold changes and 0.69 fold changes and 1.21 fold changes | Relative mRNA expression of Mdr3 in liver ([1]; TPHP-H: 50 mg/kg, 35 d): 0.80 fold changes and 0.96 fold changes and 0.74 fold changes | Relative mRNA expression of Mrp2 in liver ([1]; TPHP-H: 50 mg/kg, 35 d): 0.83 fold changes and 0.55 fold changes and 0.76 fold changes | Relative mRNA expression of Mrp3 in liver ([1]; TPHP-H: 50 mg/kg, 35 d): 1.11 fold changes and 0.88 fold changes and 0.87 fold changes | Relative mRNA expression of Mrp4 in liver ([1]; TPHP-H: 50 mg/kg, 35 d): 0.96 fold changes and 0.80 fold changes and 0.67 fold changes | Relative mRNA expression of Ntcp in liver ([1]; TPHP-H: 50 mg/kg, 35 d): 1.19 fold changes and 1.58 fold changes and 1.51 fold changes | Relative mRNA expression of Scd1 in liver ([1]; TPHP-H: 50 mg/kg, 35 d): 0.43 fold changes and 0.64 fold changes and 0.58 fold changes | Relative mRNA expression of Srebp1c in liver ([1]; TPHP-H: 50 mg/kg, 35 d): 2.82 fold changes and 2.12 fold changes and 2.38 fold changes | Relative mRNA expression of Acc1 in liver ([1]; TPHP-L: 10 mg/kg, 35 d): 1.60 fold changes and 1.11 fold changes and 0.88 fold changes | Relative mRNA expression of Acly in liver ([1]; TPHP-L: 10 mg/kg, 35 d): 1.63 fold changes and 1.57 fold changes and 1.51 fold changes | Relative mRNA expression of Bsep in liver ([1]; TPHP-L: 10 mg/kg, 35 d): 0.72 fold changes and 0.48 fold changes and 0.41 fold changes | Relative mRNA expression of Cd36 in liver ([1]; TPHP-L: 10 mg/kg, 35 d): 1.18 fold changes and 0.78 fold changes and 1.04 fold changes | Relative mRNA expression of Cpt1a in liver ([1]; TPHP-L: 10 mg/kg, 35 d): 0.92 fold changes and 1.04 fold changes and 0.99 fold changes | Relative mRNA expression of Cyp3a11 in liver ([1]; TPHP-L: 10 mg/kg, 35 d): 1.21 fold changes and 0.78 fold changes and 0.67 fold changes | Relative mRNA expression of Cyp7b1 in liver ([1]; TPHP-L: 10 mg/kg, 35 d): 0.65 fold changes and 1.07 fold changes and 0.98 fold changes | Relative mRNA expression of Cyp8b1 in liver ([1]; TPHP-L: 10 mg/kg, 35 d): 1.44 fold changes and 1.13 fold changes and 0.80 fold changes | Relative mRNA expression of Cyp27a1 in liver ([1]; TPHP-L: 10 mg/kg, 35 d): 1.02 fold changes and 1.04 fold changes and 0.92 fold changes | Relative mRNA expression of Dgat2 in liver ([1]; TPHP-L: 10 mg/kg, 35 d): 1.22 fold changes and 1.92 fold changes and 1.34 fold changes | Relative mRNA expression of Fae in liver ([1]; TPHP-L: 10 mg/kg, 35 d): 1.41 fold changes and 0.87 fold changes and 0.80 fold changes | Relative mRNA expression of Hmgcs2 in liver ([1]; TPHP-L: 10 mg/kg, 35 d): 0.83 fold changes and 1.02 fold changes and 0.93 fold changes | Relative mRNA expression of Mdr3 in liver ([1]; TPHP-L: 10 mg/kg, 35 d): 1.09 fold changes and 0.85 fold changes and 0.67 fold changes | Relative mRNA expression of Mrp2 in liver ([1]; TPHP-L: 10 mg/kg, 35 d): 0.71 fold changes and 1.09 fold changes and 0.57 fold changes | Relative mRNA expression of Mrp3 in liver ([1]; TPHP-L: 10 mg/kg, 35 d): 0.90 fold changes and 0.72 fold changes and 0.89 fold changes | Relative mRNA expression of Mrp4 in liver ([1]; TPHP-L: 10 mg/kg, 35 d): 0.86 fold changes and 0.84 fold changes and 0.91 fold changes | Relative mRNA expression of Ntcp in liver ([1]; TPHP-L: 10 mg/kg, 35 d): 1.52 fold changes and 1.66 fold changes and 1.26 fold changes | Relative mRNA expression of Scd1 in liver ([1]; TPHP-L: 10 mg/kg, 35 d): 0.40 fold changes and 0.59 fold changes and 0.35 fold changes | Relative mRNA expression of Srebp1c in liver ([1]; TPHP-L: 10 mg/kg, 35 d): 2.35 fold changes and 1.89 fold changes and 2.01 fold changes | Expression of FXR-regulated lipogenesis genes (Srebp1c, Dgat2, Acly, Acc1) in liver (in words) ([1]; TPHP-exposed mice): up-regulated | Expression of Scd1 in the liver (in words) ([1]; TPHP-exposure groups): significantly lower | Expression of PXR and PPARγ target genes in the liver, except Scd1 (in words) ([1]; after TPHP exposure): not significantly different | Expression of Cyp7a1 in liver, higher than in control group ([1]; both TPHP-L and TPHP-H groups): approximately 2 folds | activity at 1.95 µM ([2]; 1.95 μM compound + 50 μM CDCA, replicates, read-out: Relative antagonist activity (%)): 97.2% | activity at 3.9 µM ([2]; 3.90 μM compound + 50 μM CDCA, replicates, read-out: Relative antagonist activity (%)): 97.3% | activity at 31.25 µM ([2]; 31.25 μM compound + 50 μM CDCA, replicates, read-out: Relative antagonist activity (%)): 87.3% | Relative activity, antagonist mode ([2]; 50 μM compound in the presence of 50 μM CDCA, standardized against positive control DY268 (50 μM = 100%)): 42.69% | activity at 62.5 µM ([2]; 62.50 μM compound + 50 μM CDCA, replicates, read-out: Relative antagonist activity (%)): 76.5% | activity at 250 µM ([2]; 250.00 μM compound + 50 μM CDCA, standardized to DMSO and 50 μM CDCA, replicates, read-out: Relative antagonist activity (%)): 58.1% | pIC50 ([2]; read-out: IC50, inhibition of CDCA-induced coactivator recruitment to FXR): 4.15 | activity at 0.98 µM [2, 3]: 99.2% | activity at 7.8 µM [2, 3]: 95.9% | activity at 125 µM [2, 3]: 64.3% | activity at […] [2, 3]: 90.6% | Hepatic TG concentrations vs control group (in words) (C57BL/6N mice; TPHP exposure groups): significantly higher | Hepatic TG (C57BL/6N mice; TPHP-H: 50 mg/kg daily oral gavage 35 d): 731.21 μmol/g prot and 811.79 μmol/g prot and 765.68 μmol/g prot | Hepatic TG (C57BL/6N mice; TPHP-L: 10 mg/kg daily oral gavage 35 d): 784.11 μmol/g prot and 752.79 μmol/g prot and 725.51 μmol/g prot
